From patent publication US11793880B2, “Conjugates of quaternized tubulysin compounds” (Seagen Inc., priority 2015, dated 2023)

Experiments:
[1] = tested on: Karpas299, ALCL; test: In vitro assays - tubulysin free drugs, CellTiter-Glo growth inhibition; format: cell-based; conditions: free drug
Experimental: (§1) In vitro assays. Cells cultured in log-phase growth were seeded for 24 h in 96-well plates containing 150 μL RPMI 1640 supplemented with 20% FBS. Serial dilutions of antibody-drug conjugates in cell culture media were prepared at 4× working concentrations; 50 μL of each dilution was added to the 96-well plates. Following addition of ADC, cells were incubated with test articles for 4 d at 37° C. After 96 h, growth inhibition was assessed by CellTiter-Glo® (Promega, Madison, WI) and luminescence was measured on a plate reader. The IC50 value, determined in triplicate, is defined here as the concentration that results in a 50% reduction in cell growth relative to untreated controls.
(§2) In vitro assays—tubulysin free drugs. Cells were treated for 96 hours with tubulysin ether analogs (40-42) or tubulysin M (7), then assessed for viability as described in the methods.
(§3) The tubulysin ester analogs (133-137) and unsaturated ether analogs (176-179) were tested in vitro for potency relative to tubulysin M (7), following a 96 hour exposure. As shown by IC50 values (nM) of Table 2, Tubulysin esters 133-136 performed comparably to tubulysin M, with similar potencies across of the cell lines.

[2] = tested on: L428, MDR + HL; test: as above; format: cell-based; conditions: free drug
Experimental: as §1, §2, §3

[3] = tested on: HL60, AML; test: as above; format: cell-based
Experimental: as §1, §2, §3
(§4) A series of analogues of the ethyl ether tubulysin compound TubOEt (41) were synthesized on solid phase lanterns that maintain the ethyl ether substitution, while either varying the residue at the Ile position (203-215) or the Mep position (216-221). Following cleavage from the solid phase, the analogues were obtained in >85% purity and tested without further purification. The compounds were tested in vitro for potency relative to a sample of TubOEt synthesized in parallel on a lantern (41-lantern), following a 96 hour exposure, with IC5O values expressed in nM (Table 3). While in many cases an attenuation in activity was observed relative to 41-lantern, some well-tolerated substitutions were found. […] While this stereochemical preference is not observed when Ile is replaced with O-methyl threonine (207) or O-methyl allothreonine (206), bulkier substituents led to a greater differentiation. […] Replacement of the Mep residue was generally less-well tolerated.

[4] = tested on: HL60/RV, MDR + AML; test: as above; format: cell-based
Experimental: as §1, §2, §3, §4

[5] = tested on: L540cy, HL; test: as above; format: cell-based
Experimental: as §1, §2, §3, §4

[6] = tested on: DEL/BVR, MDR + ALCL; conditions: Table 4; cAC10 ADCs DAR 8, 96 h
Experimental: (§5) In vitro assays. Cells cultured in log-phase growth were seeded for 24 h in 96-well plates containing 150 μL RPMI 1640 supplemented with 20% FBS. Serial dilutions of antibody-drug conjugates in cell culture media were prepared at 4× working concentrations; 50 μL of each dilution was added to the 96-well plates. […] After 96 h, growth inhibition was assessed by CellTiter-Glo® (Promega, Madison, WI) and luminescence was measured on a plate reader.
(§6) In vitro assays—tubulysin ADCs. ADCs were prepared by t Ell reduction of interchain disulfides to reveal 8-conjugatable cysteines/antibody that were alkylated through Michael addition with the maleimide-containing Drug Linker compounds. […] conjugates hearing quaternized tubulysin ethers with and without a PEG12 side-chain were compared to their tubulysin M analogs.
(§7) Several hydrophilic linker constructs incorporating quaternized tubulysin M were prepared and evaluated in vitro; the results are shown in Table 5. The data (IC50 values in ng/mL) indicate that Conjugates prepared from Drug Linker compounds having quaternized tubulysin M linked via a hydrophilic ValGlu dipeptide with (95) or without (91) a PEG12 side chain, or linked via a hydrophilic glucuronide (82) provide ADCs that are equipotent to the ValAla comparator (15).

[7] = tested on: L428, MDR + HL; conditions: Table 4; cAC10 ADCs DAR 8, 96 h
Experimental: as §5, §6, §7

[8] = tested on: L540cy, HL; conditions: Table 4; cAC10 ADCs DAR 8, 96 h
Experimental: as §5, §6, §7

[9] = tested on: HepG2, HCC; test: In vitro assays - TubOEt analogues, CellTiter-Glo growth inhibition; format: cell-based; conditions: Homo sapiens, Table 3, lantern-made analogues >85% purity, 96 hour exposure
Experimental: as §1, §4

[10] = tested on: Ramos, NHL; test: as above; format: cell-based; conditions: Homo sapiens, Table 3, lantern-made analogues >85% purity, 96 hour exposure
Experimental: as §1, §4

[11] = tested on: U266 MM; test: as above; format: cell-based; conditions: Homo sapiens, U-266; Table 3; lantern-made analogues >85% purity, 96 hour exposure
Experimental: as §1, §4

[12] = tested on: HepG2, L540cy, Ramos, U266, HL60, HL60/RV cell lines; test: In vitro assays - TubOEt analogues, statements across the cell line panel; format: cell-based; conditions: Table 3 cell lines, 96 hour exposure
Experimental: as §1, §4

[13] = Table 1 (examples), free drug, 96 hours
[14] = Homo sapiens, KARPAS-299, 96 h, Table 2, 96 hour exposure
[15] = Homo sapiens, L-428, 96 h, Table 2, 96 hour exposure
[16] = Homo sapiens, HL-60, 96 h, Table 2, free drug, 96 hour exposure
[17] = L540cy, 96 h, Table 2, free drug, 96 hour exposure
[18] = Homo sapiens, HL-60, 96 h, Table 3, lantern-made analogues >85% purity, 96 hour exposure
[19] = L540cy, 96 h, Table 3, lantern-made analogues >85% purity, 96 hour exposure

SMILES | IC50 [1, 14] [nM] | IC50 [2, 15] [nM] | IC50 [3, 16] [nM] | IC50 [4, 16] [nM] | IC50 [5, 17] [nM] | IC50 [3, 18] [nM] | IC50 [4, 18] [nM] | IC50 [5, 19] [nM] | IC50 [9] [nM] | IC50 [10] [nM] | IC50 [11] [nM] | potency / cytotoxicity of TubOEt analogues, in words [12] | further results
CCCO[C@H](C[C@H](C(C)C)N(C)C(=O)[C@@H](NC(=O)[C@H]1CCCCN1C)[C@@H](C)CC)c1nc(C(=O)N[C@@H](Cc2ccccc2)C[C@H](C)C(=O)O)cs1 [Compound 42, (2S,4R)-4-(2-((1R,3R)-3-((2S,3S)—N,3-dimethyl-2-((R)-1-methylpiperidine-2-carboxamido)pentanamido)-4-methyl-1-propoxypentyl)thiazole-4-carboxamido)-2-methyl-5-phenylpentanoic add] | – | – | – | – | – | – | – | – | – | – | – | – | IC50 ([1]; Table 1 (examples), 96 hours): 0.15 nM; IC50 ([2]; Table 1 (examples), 96 hours): 0.4 nM; IC50 [3, 13]: 0.17 nM; IC50 [4, 13]: 14 nM; IC50 [5, 13]: 0.13 nM
CCCO[C@H](C[C@H](C(C)C)N(C)C(=O)[C@@H](NC(=O)[C@H]1CCCC[N+]1(C)Cc1ccc(O[C@@H]2O[C@H](C(=O)O)[C@@H](O)[C@H](O)[C@H]2O)c(NC(=O)CCNC(=O)[C@H](CN)N2C(=O)C=CC2=O)c1)[C@@H](C)CC)c1nc(C(=O)N[C@@H](Cc2ccccc2)C[C@H](C)C(=O)O)cs1 (some centres unmarked) [Compound 58] | – | – | – | – | – | – | – | – | – | – | – | – | IC50, DEL/BVR, MDR + ALCL [6]: 0.01 mg/L; IC50, L428, MDR + HL [7]: 0.117 mg/L; IC50, L540cy, HL [8]: 0.006 mg/L
CCC(=O)O[C@H](C[C@H](C(C)C)N(C)C(=O)[C@@H](NC(=O)[C@H]1CCCCN1C)[C@@H](C)CC)c1nc(C(=O)N[C@@H](Cc2ccccc2)C[C@H](C)C(=O)O)cs1 [Compound 133, (2S,4R)-4-(2-((1R,3R)-3-((2S,3S)—N,3-dimethyl-2-((R)-1-methylpiperidine-2-carboxamido)pentanamido)-4-methyl-1-(propionyloxy)pentyl)thiazole-4-carboxamido)-2-methyl-5-phenylpentanoic acid] | 0.02 | 0.04 | 0.1 | 1 | 0.06 | – | – | – | – | – | – | – | –
CCCC(=O)O[C@H](C[C@H](C(C)C)N(C)C(=O)[C@@H](NC(=O)[C@H]1CCCCN1C)[C@@H](C)CC)c1nc(C(=O)N[C@@H](Cc2ccccc2)C[C@H](C)C(=O)O)cs1 [Compound 134, (2S,4R)-4-(2-((1R,3R)-1-(butyryloxy)-3-((2S,3S)—N,3-dimethyl-2-((R)-1-methylpiperidine-2-carboxamido)pentanamido)-4-methylpentyl)thiazole-4-carboxamido)-2-methyl-5-phenylpentanoic acid] | 0.011 | 0.05 | 0.08 | 3 | 0.04 | – | – | – | – | – | – | – | –
CC[C@H](C)[C@H](NC(=O)[C@H]1CCCCN1C)C(=O)N(C)[C@H](C[C@@H](OC(=O)C(C)C)c1nc(C(=O)N[C@@H](Cc2ccccc2)C[C@H](C)C(=O)O)cs1)C(C)C [Compound 135, (2S,4R)-4-(2-((1R,3R)-3-((2S,3S)—N,3-dimethyl-2-((R)-1-methylpiperidine-2-carboxamido)pentanamido)-1-(isobutyryloxy)-4-methylpentyl)thiazole-4-carboxamido)-2-methyl-5-phenylpentanoic acid] | 0.02 | 0.12 | 0.1 | 6 | 0.1 | – | – | – | – | – | – | – | –
CC[C@H](C)[C@H](NC(=O)[C@H]1CCCCN1C)C(=O)N(C)[C@H](C[C@@H](OC(=O)CC(C)C)c1nc(C(=O)N[C@@H](Cc2ccccc2)C[C@H](C)C(=O)O)cs1)C(C)C [Compound 136, (2S,4R)-4-(2-((1R,3R)-3-((2S,3S)—N,3-dimethyl-2-((R)-1-methylpiperidine-2-carboxamido)pentanamido)-4-methyl-1-((3-methylbutanoyl)oxy)pentyl)thiazole-4-carboxamido)-2-methyl-5-phenylpentanoic acid] | 0.02 | 0.11 | 0.04 | 6 | 0.06 | – | – | – | – | – | – | – | –
CCO[C@H](C[C@H](C(C)C)N(C)C(=O)[C@@H](NC(=O)[C@H]1CCCCN1C)C1CCCC1)c1nc(C(=O)N[C@@H](Cc2ccccc2)C[C@H](C)C(=O)O)cs1 [Compound 204, (2S,4R)-4-(2-((1R,3R)-3-((S)-2-cyclopentyl-N-methyl-2-((R)-1-methylpiperidine-2-carboxamido)acetamido)-1-ethoxy-4-methylpentyl)thiazole-4-carboxamido)-2-methyl-5-phenylpentanoic acid] | – | – | – | – | – | 1 | 40 | 0.4 | 2 | 0.2 | 0.1 | potent | –
CCO[C@H](C[C@H](C(C)C)N(C)C(=O)[C@@H](NC(=O)[C@H]1CCCCN1C)C1CCCCC1)c1nc(C(=O)N[C@@H](Cc2ccccc2)C[C@H](C)C(=O)O)cs1 [Compound 205, (2S,4R)-4-(2-((1R,3R)-3-((S)-2-cyclohexyl-N-methyl-2-((R)-1-methylpiperidine-2-carboxamido)acetamido)-1-ethoxy-4-methylpentyl)thiazole-4-carboxamido)-2-methyl-5-phenylpentanoic acid] | – | – | – | – | – | 2 | 177 | 1 | 7 | 0.5 | 0.5 | potent | –
CCO[C@H](C[C@H](C(C)C)N(C)C(=O)[C@@H](NC(=O)[C@H]1CCCCN1C)C1CCOCC1)c1nc(C(=O)N[C@@H](Cc2ccccc2)C[C@H](C)C(=O)O)cs1 [Compound 210, (2S,4R)-4-(2-((1R,3R)-1-ethoxy-4-methyl-3-((S)—N-methyl-2-((R)-1-methylpiperidine-2-carboxamido)-2-(tetrahydro-2H-pyran-4-yl)acetamido)pentyl)thiazole-4-carboxamido)-2-methyl-5-phenylpentanoic acid] | – | – | – | – | – | > 1000 | > 1000 | > 1000 | > 1000 | > 1000 | > 1000 | inactive against all cell lines tested | –
CCO[C@H](C[C@H](C(C)C)N(C)C(=O)[C@@H](NC(=O)[C@H]1CCCCN1C)[C@@H](C)OC(C)(C)C)c1nc(C(=O)N[C@@H](Cc2ccccc2)C[C@H](C)C(=O)O)cs1 [Compound 215, (2S,4R)-4-(2-((1R,3R)-3-((2S,3R)-3-(tert-butoxy)-N-methyl-2-((R)-1-methylpiperidine-2-carboxamido)butanamido)-1-ethoxy-4-methylpentyl)thiazole-4-carboxamido)-2-methyl-5-phenylpentanoic acid] | – | – | – | – | – | 1 | 33 | 0.2 | 1 | 0.2 | 0.1 | significantly more potent | –
